Laboratory results taken from paper PMC9403976, “Elucidating the path to Plasmodium prolyl-tRNA synthetase inhibitors that overcome halofuginone resistance” (Nature Communications, 2022).
Several values for one entry are separate records, joined by “and”; a condition that tells them apart may be missing. Equal entries are not always repeated. Where two headings read alike, the source gives them in different places.

Legend:
PfcProRS = biological target: T1, PfcProRS (Plasmodium falciparum, UniProt Q8I5R7); type: binding; details: single replicates
T1 construct: made in house; host or cells: E. coli SoluBL-21
T1 sequence (Q8I5R7 249-746): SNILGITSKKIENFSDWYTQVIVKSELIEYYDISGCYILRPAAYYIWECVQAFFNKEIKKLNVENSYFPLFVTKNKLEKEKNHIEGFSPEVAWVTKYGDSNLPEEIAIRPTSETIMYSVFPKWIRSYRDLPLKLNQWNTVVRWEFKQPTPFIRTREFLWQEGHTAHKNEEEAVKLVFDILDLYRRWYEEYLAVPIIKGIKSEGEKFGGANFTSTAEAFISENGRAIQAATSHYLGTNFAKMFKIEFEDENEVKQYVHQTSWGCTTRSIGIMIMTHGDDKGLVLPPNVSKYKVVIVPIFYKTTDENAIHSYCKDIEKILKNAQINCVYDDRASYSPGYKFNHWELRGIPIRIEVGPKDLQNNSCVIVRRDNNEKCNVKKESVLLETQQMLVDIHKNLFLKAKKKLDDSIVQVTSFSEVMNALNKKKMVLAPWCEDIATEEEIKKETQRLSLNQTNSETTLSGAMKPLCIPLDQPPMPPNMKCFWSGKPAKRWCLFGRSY

HsProRS = HsProRS (Homo sapiens, UniProt P07814); assay: TR-FRET ligand displacement assay with tracer MAT379 (CoraFluor-1-Halo and anti-His6 antibody formats); type: binding; set-up: made in house; host or cells: E. coli SoluBL-21; details: for TR-FRET dose-response, normalized signal (SI Fig 11): individual replicates
HsProRS, sequence (P07814 996-1512): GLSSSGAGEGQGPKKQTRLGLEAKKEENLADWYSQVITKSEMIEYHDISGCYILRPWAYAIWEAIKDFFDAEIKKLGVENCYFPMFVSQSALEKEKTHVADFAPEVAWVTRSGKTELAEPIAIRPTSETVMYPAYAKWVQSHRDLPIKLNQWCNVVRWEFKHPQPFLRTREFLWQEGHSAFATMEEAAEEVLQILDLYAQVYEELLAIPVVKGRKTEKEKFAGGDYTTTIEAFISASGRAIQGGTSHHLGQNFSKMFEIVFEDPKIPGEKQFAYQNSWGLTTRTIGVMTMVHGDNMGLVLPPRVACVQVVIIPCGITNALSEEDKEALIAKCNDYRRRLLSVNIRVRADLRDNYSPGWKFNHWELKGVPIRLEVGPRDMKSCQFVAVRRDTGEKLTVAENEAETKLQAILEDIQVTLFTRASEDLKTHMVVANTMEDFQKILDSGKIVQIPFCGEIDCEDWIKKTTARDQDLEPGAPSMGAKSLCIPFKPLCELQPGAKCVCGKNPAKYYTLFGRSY

In the case of `CC(C)N(C(=O)Nc1nccnc1C(=O)NC1Cc2ccccc2C1)C(C)C` [compound 5], the “dose-response signal (normalized), SI Fig 8” value (PfcProRS; Log[inhibitor] (M) -5.000) is reported as 1.47E-01 and 1.35E-01 and 1.83E-01, the “dose-response signal (normalized), SI Fig 8” value (PfcProRS; Log[inhibitor] (M) -5.301) is reported as 3.88E-01 and 4.48E-01 and 4.36E-01 and the “dose-response signal (normalized), SI Fig 8” value (PfcProRS; Log[inhibitor] (M) -5.601) is reported as 7.44E-01 and 8.07E-01 and 7.69E-01. For the same compound, the “dose-response signal (normalized), SI Fig 8” value (PfcProRS; Log[inhibitor] (M) -5.904) was 8.45E-01 and 8.57E-01 and 9.58E-01, the “dose-response signal (normalized), SI Fig 8” value (PfcProRS; Log[inhibitor] (M) -6.208) was 8.74E-01 and 8.91E-01 and 9.30E-01 and the “dose-response signal (normalized), SI Fig 8” value (PfcProRS; Log[inhibitor] (M) -6.509) was 9.93E-01 and 1.13E+00 and 1.03E+00. The “dose-response signal (normalized), SI Fig 8” value (PfcProRS; Log[inhibitor] (M) -6.796) was 1.01E+00 and 9.89E-01 and 1.13E+00, the “dose-response signal (normalized), SI Fig 8” value (PfcProRS; Log[inhibitor] (M) -7.108) was 9.82E-01 and 9.95E-01 and 1.21E+00 and the “dose-response signal (normalized), SI Fig 8” value (PfcProRS; Log[inhibitor] (M) -7.409) was 1.20E+00 and 1.06E+00 and 1.08E+00. For the same compound, the “dose-response signal (normalized), SI Fig 8” value (PfcProRS; Log[inhibitor] (M) -7.710) was 1.11E+00 (2×) and 1.12E+00, the “dose-response signal (normalized), SI Fig 8” value (PfcProRS; Log[inhibitor] (M) -8.000) was 1.01E+00 and 1.06E+00 and 1.07E+00 and the “dose-response signal (normalized), SI Fig 8” value (PfcProRS; Log[inhibitor] (M) -8.301) was 9.64E-01 and 1.10E+00 and 1.14E+00. The “dose-response signal (normalized), SI Fig 8” value (PfcProRS; Log[inhibitor] (M) -8.602) was 8.54E-01 and 1.04E+00 and 1.07E+00, the “dose-response signal (normalized), SI Fig 8” value (PfcProRS; Log[inhibitor] (M) -9.000) was 9.25E-01 and 9.26E-01 and 1.03E+00 and the “dose-response signal (normalized), SI Fig 8” value (PfcProRS; Log[inhibitor] (M) -9.301) was 8.80E-01 and 9.99E-01 and 1.04E+00. For the same compound, the Kd (HsProRS; HsProRS - best Kd, SI Fig 16a, values on -log scale) was 1020 nM, the “normalized TR-FRET ligand displacement signal, dose-response replicates (SI Fig 6)” value (HsProRS; Log[inhibitor] (M) -5.000) was 8.71E-01 and 7.50E-01 and 6.79E-01 and the “TR-FRET dose-response, normalized signal (SI Fig 11)” value (HsProRS; Log[inhibitor] (M) -5.000) was 6.19E-01 and 6.48E-01 and 6.40E-01. The “normalized TR-FRET ligand displacement signal, dose-response replicates (SI Fig 6)” value (HsProRS; Log[inhibitor] (M) -5.301) was 9.58E-01 and 7.89E-01 and 8.27E-01, the “TR-FRET dose-response, normalized signal (SI Fig 11)” value (HsProRS; Log[inhibitor] (M) -5.301) was 7.58E-01 and 7.59E-01 and 7.76E-01 and the “normalized TR-FRET ligand displacement signal, dose-response replicates (SI Fig 6)” value (HsProRS; Log[inhibitor] (M) -5.601) was 8.37E-01 and 1.05E+00 and 1.03E+00. For the same compound, the “TR-FRET dose-response, normalized signal (SI Fig 11)” value (HsProRS; Log[inhibitor] (M) -5.601) was 8.37E-01 and 8.60E-01 and 8.59E-01, the “normalized TR-FRET ligand displacement signal, dose-response replicates (SI Fig 6)” value (HsProRS; Log[inhibitor] (M) -5.904) was 1.09E+00 and 1.03E+00 and 9.64E-01 and the “TR-FRET dose-response, normalized signal (SI Fig 11)” value (HsProRS; Log[inhibitor] (M) -5.904) was 9.61E-01 and 8.97E-01 and 9.02E-01. For the same compound, the “normalized TR-FRET ligand displacement signal, dose-response replicates (SI Fig 6)” value (HsProRS; Log[inhibitor] (M) -6.208) was 9.53E-01 and 8.96E-01 and 9.38E-01, the “TR-FRET dose-response, normalized signal (SI Fig 11)” value (HsProRS; Log[inhibitor] (M) -6.208) was 9.36E-01 and 9.49E-01 and 9.17E-01 and the “normalized TR-FRET ligand displacement signal, dose-response replicates (SI Fig 6)” value (HsProRS; Log[inhibitor] (M) -6.509) was 9.42E-01 and 9.99E-01 and 1.01E+00. The “TR-FRET dose-response, normalized signal (SI Fig 11)” value (HsProRS; Log[inhibitor] (M) -6.509) was 8.96E-01 and 8.83E-01 and 9.32E-01, the “normalized TR-FRET ligand displacement signal, dose-response replicates (SI Fig 6)” value (HsProRS; Log[inhibitor] (M) -6.796) was 1.20E+00 (2×) and 1.11E+00 and the “TR-FRET dose-response, normalized signal (SI Fig 11)” value (HsProRS; Log[inhibitor] (M) -6.796) was 9.19E-01 and 9.16E-01 and 9.35E-01. The “normalized TR-FRET ligand displacement signal, dose-response replicates (SI Fig 6)” value (HsProRS; Log[inhibitor] (M) -7.108) was 9.92E-01 and 1.02E+00 and 1.18E+00, the “TR-FRET dose-response, normalized signal (SI Fig 11)” value (HsProRS; Log[inhibitor] (M) -7.108) was 9.11E-01 and 9.16E-01 and 8.81E-01 and the “normalized TR-FRET ligand displacement signal, dose-response replicates (SI Fig 6)” value (HsProRS; Log[inhibitor] (M) -7.409) was 8.86E-01 and 9.18E-01 and 1.10E+00. For the same compound, the “TR-FRET dose-response, normalized signal (SI Fig 11)” value (HsProRS; Log[inhibitor] (M) -7.409) was 9.21E-01 and 9.28E-01 and 9.54E-01, the “normalized TR-FRET ligand displacement signal, dose-response replicates (SI Fig 6)” value (HsProRS; Log[inhibitor] (M) -7.710) was 1.00E+00 and 9.56E-01 and 9.99E-01 and the “TR-FRET dose-response, normalized signal (SI Fig 11)” value (HsProRS; Log[inhibitor] (M) -7.710) was 9.54E-01 and 9.03E-01 and 9.47E-01. For the same compound, the “normalized TR-FRET ligand displacement signal, dose-response replicates (SI Fig 6)” value (HsProRS; Log[inhibitor] (M) -8.000) was 1.08E+00 and 9.18E-01 and 9.67E-01, the “TR-FRET dose-response, normalized signal (SI Fig 11)” value (HsProRS; Log[inhibitor] (M) -8.000) was 9.82E-01 and 9.20E-01 and 9.02E-01 and the “normalized TR-FRET ligand displacement signal, dose-response replicates (SI Fig 6)” value (HsProRS; Log[inhibitor] (M) -8.301) was 9.61E-01 and 8.84E-01 and 1.00E+00. For the same compound, the “TR-FRET dose-response, normalized signal (SI Fig 11)” value (HsProRS; Log[inhibitor] (M) -8.301) was 9.50E-01 and 9.79E-01 and 9.60E-01, the “normalized TR-FRET ligand displacement signal, dose-response replicates (SI Fig 6)” value (HsProRS; Log[inhibitor] (M) -8.602) was 9.71E-01 and 1.01E+00 and 8.97E-01 and the “TR-FRET dose-response, normalized signal (SI Fig 11)” value (HsProRS; Log[inhibitor] (M) -8.602) was 9.46E-01 and 9.17E-01 and 9.64E-01. For the same compound, the “normalized TR-FRET ligand displacement signal, dose-response replicates (SI Fig 6)” value (HsProRS; Log[inhibitor] (M) -9.000) was 9.83E-01 and 9.95E-01 and 9.23E-01, the “TR-FRET dose-response, normalized signal (SI Fig 11)” value (HsProRS; Log[inhibitor] (M) -9.000) was 9.65E-01 and 9.90E-01 and 9.18E-01 and the “normalized TR-FRET ligand displacement signal, dose-response replicates (SI Fig 6)” value (HsProRS; Log[inhibitor] (M) -9.301) was 9.67E-01 and 9.33E-01 and 1.01E+00. The “TR-FRET dose-response, normalized signal (SI Fig 11)” value (HsProRS; Log[inhibitor] (M) -9.301) was 9.51E-01 and 9.69E-01 and 8.77E-01.
